Measured values as given in patent US20070128217A1 (priority 2003, published 2007).

Key:
[1] = test system: control sera (pooled serum of ten healthy LUMC hospital workers; commercial negative donor pooled serum from the Dutch bloodbank); type: binding, human
[2] = test system: rabbit serum obtained by immunizing a rabbit with the SARS-CoV strain Frankfurt 1; type: binding; design: Binding of a rabbit serum to linear peptides / Binding of a rabbit serum to looped peptides / Rabbit serum linear peptides / Rabbit serum looped peptides / Binding of a rabbit serum to linear peptides of protein N of SARS-CoV Urbani (Rabbit serum linear peptides) / Binding of a rabbit serum to looped/cyclic peptides of protein N of SARS-CoV Urbani (Rabbit serum looped peptides): unit not given here
[3] = test system: antibodies in sera from SARS patients (sera 1a, 1b, 2, 6, 37, 62, London, SARS-yellow, SARS-green); type: binding, human

Sequence	Binding of Control Serum Blood-Bank to Looped peptides [1]	Binding of Control serum Blood-bank to linear peptides [1]	Binding of Control serum LUMC to linear peptides [1]	Binding of Control serum LUMC to looped peptides [1]	Binding of a rabbit serum to linear peptides [2]	Binding of a rabbit serum to looped peptides [2]	Binding of serum 1a to linear peptides of protein E of SARS-CoV Urbani [3]	Binding of serum 1a to looped/cyclic peptides of protein E of SARS-CoV Urbani [3]	Binding of serum 1b to linear peptides of protein E of SARS-CoV Urbani [3]	Binding of serum 1b to looped/cyclic peptides of protein E of SARS-CoV Urbani [3]	Binding of serum 2 to linear peptides of protein E of SARS-CoV Urbani [3]	Binding of serum 2 to looped/cyclic peptides of protein E of SARS-CoV Urbani [3]	Binding of serum 6 to linear peptides of protein E of SARS-CoV Urbani [3]	Binding of serum 6 to looped/cyclic peptides of protein E of SARS-CoV Urbani [3]	Binding of serum 37 to linear peptides of protein E of SARS-CoV Urbani [3]	Binding of serum 37 to looped/cyclic peptides of protein E of SARS-CoV Urbani [3]	Binding of serum 62 to linear peptides of protein E of SARS-CoV Urbani [3]	Binding of serum 62 to looped/cyclic peptides of protein E of SARS-CoV Urbani [3]	Binding of serum London to linear peptides of protein E of SARS-CoV Urbani [3]	Binding of serum London to looped/cyclic peptides of protein E of SARS-CoV Urbani [3]	also measured
GTLIVNSVLLFLAFV	0.7	0.7	0.5	0.3	0.6	0.0	0.8	0.2	0.7	0.0	0.4	0.6	0.9	0.3	0.8	0.2	0.7	0.4	0.5	0.4	Binding of serum SARS-green to linear peptides of protein E of SARS-CoV Urbani [3]: 0.4; Binding of serum SARS-green to looped/cyclic peptides of protein E of SARS-CoV Urbani [3]: 0.4; Binding of serum SARS-yellow to linear peptides of protein E of SARS-CoV Urbani [3]: 0.2; Binding of serum SARS-yellow to looped/cyclic peptides of protein E of SARS-CoV Urbani [3]: 0.0
MYSFVSEETGTLIVN	0.6	0.8	0.7	0.8	0.5	0.2	0.8	0.7	0.8	0.5	0.6	0.6	0.6	0.5	0.8	0.7	0.8	0.8	0.6	0.4	Binding of serum SARS-green to linear peptides of protein E of SARS-CoV Urbani [3]: 0.6; Binding of serum SARS-green to looped/cyclic peptides of protein E of SARS-CoV Urbani [3]: 0.4; Binding of serum SARS-yellow to linear peptides of protein E of SARS-CoV Urbani [3]: 0.1; Binding of serum SARS-yellow to looped/cyclic peptides of protein E of SARS-CoV Urbani [3]: 0.8
